Patent US12448475B2, “Drug delivery compositions and applications thereof” (The University of North Carolina at Chapel Hill, priority 2019, dated 2025)
Values after ≈ are worked out from the molar mass of the structure shown.

Experiments:
[1] = DLS size distribution of API-loaded micelles, Example 8; type: physicochemical; settings: PcBOx triblock (PMeOx-PcBOx-PMeOx) micelles
Protocol: (§1) Drug-encapsulated polymeric nanoparticle formulations were prepared by the thin film hydration method. For resiquimod, imiquimod, and RXDX-105, stock solutions of PMeOx-PcBOx-PMeOx and drugs in chloroform:methanol (9:1) solution were mixed together at the pre-determined ratios (8:10 drug to polymer w/w ratio (resiquimod), 2:10 w/w ratio (imiquimod), 4:10 w/w ratio (RXDX-105)). The organic solvent was evaporated at 58° C. under a stream of inert gas to form a thin-film of drug-polymer homogenous mixture. Next, the thin films were hydrated with saline and then incubated for 5-10 min to form drug-encapsulated polymeric micelle solutions. All samples were prepared with 1 mg of polymer and hydrated with 100 uL of saline. The formed micelle solutions were centrifuged at 10,000 rpm for 3 minutes (Sorvall Legend Micro 21R Centrifuge, Thermo Scientific) to remove any precipitate of unloaded drug or polymer. The final concentration of drugs in PMeOx-PcBOx-PMeOx micelles was analyzed by HPLC (Agilent Technologies 1200 series) using a mixture of acetonitrile/water (70%/30% v/v for Resiquimod and imiquimod; 50%/50% v/v for RXDX-105) as the mobile phase. The samples were diluted with mobile phase to final concentration of ˜100 μg/mL of drugs and injected (10 μL) into the HPLC system. The flow rate was 1.0 mL/min, and column temperature was 40° C. Detection wavelength was 254 nm. Drug concentration was quantified against free drug calibration curves. Particle z-average effective diameter and polydispersity index (PDI) were measured by dynamic light scattering (DLS) (Nano-ZS, Malvern Instruments, UK).

[2] = Loading capacity of API-loaded micelles (thin film hydration, HPLC), Example 8; type: physicochemical; settings: PcBOx triblock (PMeOx-PcBOx-PMeOx) micelles, polymer 10 mg/ml
Protocol: as §1, with “The samples were diluted with mobile phase to final concentration of ˜100 μg/mL of drugs and injected (10 μL) into the HPLC system. The flow rate was 1.0 mL/min, and column temperature was 40° C. Detection wavelength was 254 nm.” left out, “UK). […]” for “UK).”

physchem = test: physchem
Text: (§2) (P2). The molecules examined belonged to different classes including transforming growth factor β (TGF-β) receptor inhibitors (LY2109761, GW788388 and LY364947), protein synthesis inhibitors (bruceantin), toll-like receptor (TLR) 7 agonist (imiquimod), phosphatidylinositol 3-kinase (PI3K) inhibitors (wortmannin and pictilisib (GDC-0941)), microtubule inhibitor (paclitaxel), and topoisomerase inhibitors (Aclacinomycin A and SN-38). […] Drugs were screened at various ratios, beginning at 1:10 (drug:polymer), and increased the ratio until maximal solubility was obtained.

[3] = Solubilization of poorly soluble drugs in PMeOx-PcBOx polymeric micelles; settings: polymer 10 mg/ml
Text: as §2

[4] = DLS size distribution of drug-loaded PMeOx-PcBOx micelle formulations; type: physicochemical; settings: drug-loaded PMeOx-PcBOx micelle formulation
[5] = Release profile of encapsulated drugs from polymeric micelles; type: physicochemical; settings: from P2, after 24 hours, 10:1 polymer:drug feeding ratio
Protocol: The release profile of encapsulated drugs (Paclitaxel and Bruceantin) in PMeOx-PcBOx was investigated. Both Paclitaxel and Bruceantin were continuously released from PMeOx-PcBOx nanoparticle, with over 80% of drugs being released at 24 hour time point (FIG. 5C). The release rates were similar for Bruceantin in both of the polymers. […] After 24 hours, most of the PTX was released in PcBOx whereas not even 50% was released from P2. This kind of release data is consistent with previously published data at this low (10:1) polymer:drug feeding ratio. Both paclitaxel and Bruceantin formulation in PMeOx-PcBOx were proven stable for 8 days at 4° C. as the drug loading and size distribution were monitored (FIGS. 5E and 5F).

**Q.** Which results are given for `COc1cc2ncnc(Oc3cccc(NC(=O)Nc4cc(C(C)(C)C(F)(F)F)on4)c3)c2cc1OC` [RXDX-105]?
**A.** Deff [1]: 112 nm; PDI [1]: 0.30; LC (%) [2]: 24.1%

**Q.** With `CS(=O)(=O)N1CCN(Cc2cc3nc(-c4cccc5[nH]ncc45)nc(N4CCOCC4)c3s2)CC1` [GDC-0941, pictilisib] as the compound, how does the “solubilization (in words)” value (physchem) read?
**A.** practically insoluble

**Q.** And the “LC (maximum loading capacity)” value [3]?
**A.** 4.3%

**Q.** With `CC[C@@]1(O)C[C@H](O[C@H]2C[C@H](N(C)C)[C@H](O[C@H]3C[C@H](O)[C@H](O[C@H]4CCC(=O)[C@H](C)O4)[C@H](C)O3)[C@H](C)O2)c2c(cc3c(c2O)C(=O)c2c(O)cccc2C3=O)[C@H]1C(=O)OC` [aclacinomycin A, Aclacinomycin A] as the compound, how does the “LC (maximum loading capacity)” value [3] read?
**A.** 6.8%

**Q.** Which “LC (maximum loading capacity)” value [3] does the source give for `O=C(NC1CCOCC1)c1ccc(-c2cc(-c3c[nH]nc3-c3ccccn3)ccn2)cc1` [GW788388] here?
**A.** 0.2%

**Q.** For `CCc1c2c(nc3ccc(O)cc13)-c1cc3c(c(=O)n1C2)COC(=O)[C@]3(O)CC` [SN-38], which “LC (maximum loading capacity)” value [3] is on record?
**A.** undetectable

**Q.** What does the source list for `CC(=O)O[C@H]1C(=O)[C@@]2(C)[C@H]([C@H](OC(=O)c3ccccc3)[C@]3(O)C[C@H](OC(=O)[C@H](O)[C@@H](NC(=O)c4ccccc4)c4ccccc4)C(C)=C1C3(C)C)[C@]1(OC(C)=O)CO[C@@H]1C[C@@H]2O` [paclitaxel]?
**A.** LC (maximum loading capacity) (physchem; P2 micelles, polymer 10 mg/ml): 41%; LE (loading efficiency) (physchem; P2 micelles, polymer 10 mg/ml): 86%; solubility (physchem; aqueous with cosolvent or surfactant or cyclodextrin): 6890 µg/mL (≈ 8.07 mM); Dv10 [4]: 23.3 nm; Dv50 [4]: 34.6 nm; Dv90 [4]: 80.9 nm; PDI [4]: 0.298; size in DLS measurement [4]: 85 nm; drug released [5]: < 50%; LC (maximum loading capacity) [3]: 6.3%

**Q.** Which “LC (maximum loading capacity)” value [3] does the source give for `c1ccc(-c2[nH]ncc2-c2ccnc3ccccc23)nc1` [LY364947] here?
**A.** 0.3%

**Q.** For `CC(C)Cn1cnc2c(N)nc3ccccc3c21` [Imiquimod, imiquimod], which “solubilization (in words)” value (physchem) is on record?
**A.** practically insoluble

**Q.** And the Deff [1]?
**A.** 160 nm

**Q.** And the PDI [1]?
**A.** 0.18

**Q.** And the “LC (%)” value [2]?
**A.** 14.1%

**Q.** And the “LC (maximum loading capacity)” value [3]?
**A.** undetectable

**Q.** What does the source list for `c1ccc(-c2nn3c(c2-c2ccnc4cc(OCCN5CCOCC5)ccc24)CCC3)nc1` [LY2109761]?
**A.** LC (maximum loading capacity) (physchem; P2 micelles, polymer 10 mg/ml): 14.0%; LE (loading efficiency) (physchem; P2 micelles, polymer 10 mg/ml): 78%; maximal solubilized drug concentration (physchem; P2 micelles, polymer 10 mg/ml): 1.5 mg/mL; Dv10 [4]: 15.5 nm; Dv50 [4]: 21.5 nm; Dv90 [4]: 34.8 nm; PDI [4]: 0.4; size in DLS measurement [4]: 50 nm; LC (maximum loading capacity) [3]: 24.7%; LE (loading efficiency) [3]: 82%; maximal solubilized drug concentration [3]: ~3.28 mg/mL
